Like-named read-outs stand apart in the source and are kept apart here.

The bioavailability is the share of a dose that reaches the circulation, judged against a reference dose that is usually intravenous. Low readings indicate poor availability, high ones good availability.

For data set [1] the following is noted: mice; cited from earlier work.
A short description of data set [2]: Temperature stability studies of bendamustine. The data set is classed as physicochemical. The protocol: Temperature stability studies of bendamustine were conducted with treatment of bendamustine at given temperatures for 10 minutes.
Data set [3] can be described thus: Compatibility studies of bendamustine with excipients (1:1 binary mixtures). The data set is classed as physicochemical. Conditions: for Total impurities %: open container, one month. The protocol: Compatibility studies of bendamustine with different excipients used in hot melt extrusion process were realised with incubation of 1:1 (w/w) binary mixtures of these excipients with bendamustine at 40° C. 75% RH in an open container for one month.

Data set [4] in a line: Rat studies to determine oral bioavailability of bendamustine. The following applies: male, Sprague-Dawley, in vivo; for AUC(0-inf): read-out: mean AUC0-∞. Here is the method: Rat studies were carried out with the extrudate to determine the oral bioavailability of bendamustine. For this purpose 3 mg/kg bendamustine was applied parenterally to 3 animals and samples were taken at 0, 0.083, 0.25, 0.5, 1, 2, 4, 8 hours and analyzed with a validated HPLC/MS method. Furthermore extrudates of the invention were applied orally to 9 rats with a bendamustine concentration of 10.8 mg/kg. Samples were taken at 0, 0.25, 0.5, 1, 2, 4, 6, 8 hours and analyzed with a validated HPLC/MS method

`Cn1c(CCCC(=O)O)nc2cc(N(CCCl)CCCl)ccc21` [bendamustine, 4-[5-[Bis(2-chloroethyl)amino]-1-methylbenzimidazol-2-yl]butanoic acid]: in data set [1], the oral bioavailability was 40%. Also, the Assay % in data set [2] (70 ° C. for 10 minutes) worked out at 101.75%; in data set [2] (100 ° C. for 10 minutes), 99.216%; in data set [2] (120 ° C. for 10 minutes) it was 97.732%. The “Total Impurity %” value in data set [2] (70 ° C. for 10 minutes) turned out to be 0.7%; in data set [2] (100 ° C. for 10 minutes), 0.8%; in data set [2] (120 ° C. for 10 minutes), 1.3%. Moreover, the Total impurities % in data set [3] (1:1 (w/w) mixture with Ascorbic acid, 40° C. 75% RH) turned out to be 0.121%; in data set [3] (1:1 (w/w) mixture with Citric acid, 40° C. 75% RH), 0.098%; in data set [3] (1:1 (w/w) mixture with Ditert butyl methyl phenol, 40° C. 75% RH) it was 0.258%; in data set [3] (1:1 (w/w) mixture with Eudragit ® EPO, 40° C. 75% RH) it was 0.154%; in data set [3] (1:1 (w/w) mixture with Kollidone VA64, 40° C. 75% RH) it was 0.091%; in data set [3] (1:1 (w/w) mixture with PEG 1000, 40° C. 75% RH), 0.326%. Further, the Total impurities % in data set [3] (1:1 (w/w) mixture with PEG 2000, 40° C. 75% RH) turned out to be 0.229%; in data set [3] (1:1 (w/w) mixture with Plasdone K12, 40° C. 75% RH), 0.124%; in data set [3] (1:1 (w/w) mixture with Soluplus, 40° C. 75% RH), 0.118%; in data set [3] (1:1 (w/w) mixture with Vit E acetate, 40° C. 75% RH), 0.101%. Also, in data set [3] (with large amounts of PEG 2000, PEG 1000 and Diter butyl methyl phenol, 40° C. 75% RH), the Compatibility with excipients result is given as “incompatibility”. In addition, the bioavailability in data set [4] (iv, 3 mg/kg) came to 100%; in data set [4] (po, 10 mg/kg), 33%. The AUC(0-inf) in data set [4] (iv, 3 mg/kg) was found to be 675 ng·h/mL; in data set [4] (po, 10 mg/kg), 742 ng·h/mL.

The values above are taken from patent US20150050210A1 (priority 2012, published 2015).
